In patent publication US9642835B2, “Modulators of GTPase and use in relevant treatment” (STC.UNM, priority 2010, dated 2017):

How the values were obtained:
Cdc42 ACT (Cdc42Q61L) = Cdc42 ACT (Cdc42Q61L) (Homo sapiens, UniProt P60953, Q61L); assay: Bead-based flow cytometry dose response, BODIPY-FL-GTP binding; conditions: Table 6, R3 analogs; read-out: Cdc42 ACT EC50
Experimental: (§1) Bead sets for multiplex assays were custom synthesized by Duke Scientific Corp (Fremont, Calif.), but may now be ordered from Thermo/Fisher. […] Negative controls, contained the bead mixture with fluorescent GTP, 0.5 mM unlabeled GTP as a competitor, and 1% DMSO. […] The resulting time-dependent data (one file per plate) were analyzed using IDLQuery software to determine the compound activity in each well. Gating based on forward scatter (FS) and side scatter (SS) parameters was used to identify singlet bead populations. Gating based on FL8 emission distinguishes the beads coated with different proteins, and the median fluorescence per bead population was calculated. […] Baselines were set to 100% based on measurements from the 1% DMSO containing positive controls as further described in PubChem. {PubChem #72}
(§2) Briefly, compounds were serially diluted 1:3 a total of eight times from a starting concentration of 10 mM giving a 9-point dilution series in DMSO. The final concentrations of inhibitors in the assay ranged from 10 nM to 100 μM. Dose-response analyses were examined in the presence of NP-HPS buffer containing: a) 1 mM EDTA; or b) 1 mM MgCl2. […] For assays with EDTA we used one multiplex (Rab7 wt, Rab2 wt, H-Ras wt, H-RasG12V, Cdc42 wt, and Cdc42Q61L) and 3 single-plexes (for Rac1 wt, Rac1 Q61L and GST-GFP).
(§3) GTPase activators were identified on the basis of an increase in fluorescent GTP-binding.
(§4) In experiments including magnesium, six GST-GTPases were assayed simultaneously in a single multiplex (Rac1 wt, Rac1Q61L, RhoA wt, RhoAL63, Cdc42 wt and Cdc42Q61L) and 1 nM BODIPY-FL-GTP binding was measured in the presence or absence of the serial drug dilution series. Each dose response series was run in duplicate.

Cdc42 WT = target: T1, Cdc42 WT (Homo sapiens, UniProt P60953); assay: as above; conditions: Table 6, R3 analogs; for EC50: read-out: Cdc42 WT EC50; for Emax: read-out: Cdc42 WT Efficacy
T1 construct: purchased Cytoskeleton
T1 sequence (P60953 whole entry): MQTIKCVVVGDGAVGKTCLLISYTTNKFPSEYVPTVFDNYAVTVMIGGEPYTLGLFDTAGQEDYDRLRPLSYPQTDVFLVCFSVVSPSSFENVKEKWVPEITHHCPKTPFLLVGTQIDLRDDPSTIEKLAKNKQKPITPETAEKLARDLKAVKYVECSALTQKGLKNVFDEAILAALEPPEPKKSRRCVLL
Experimental: as §1, §2, §3, §4

[1] = target: T2, Cdc42 GTPase in Swiss 3T3 cells (Mus musculus, UniProt P60766); assay: GLISA; type: cell-based; conditions: approximately 10 μM
T2 construct: endogenous in cells; host or cells: Swiss 3T3 cells
T2 sequence (P60766 whole entry): as the sequence (P60953 whole entry) above
Experimental: Swiss 3T3 cells were continuously passaged at subconfluence and used to monitor the capacity of compounds to block stimulus-mediated activation of Cdc42, Rac1 or RhoA in vivo. Commercial GLISA kits customized to capture activated Cdc42, Rac1 or Rho from cell lysates were used per manufacturer's instructions (Cytoskeleton, Inc.). Cells were serum starved by sequentially removing serum over a three day period and treated with DMSO or 10 μM compound in DMSO for 20-30 min. Subsequently samples were treated with EGF (10 ng/ml for Rac1 and 100 ng/ml for Cdc42) for 2 min to activate Rac1 and Cdc42 or 5 U/ml calpeptin for 10 min to activate RhoA. DMSO treated cells were left unstimulated to determine baseline GTPase activation or stimulated without drug treatment to determine maximal GTPase activation. Cell lysates were snap frozen, active Cdc42 and Rac1 were quantified based on a PAK binding assay, active RhoA was quantified based on Rho GTP-binding protein interaction. All assays were performed in 96-well microtiter plates, Purified GTP-bound Cdc42, Rac1, or RhoA served as a standards to calculate ng active GTPase in the lysates.

Cdc42 = Cdc42 (Homo sapiens, UniProt P60953); assay: Fluorescent-GTP binding to Cdc42 (p38 inhibitor control)
Chain of Cdc42 (P60953 whole entry, species assumed): as the sequence (P60953 whole entry) above

Chain of Cdc42 ACT (Cdc42Q61L) (P60953 whole entry Q61L): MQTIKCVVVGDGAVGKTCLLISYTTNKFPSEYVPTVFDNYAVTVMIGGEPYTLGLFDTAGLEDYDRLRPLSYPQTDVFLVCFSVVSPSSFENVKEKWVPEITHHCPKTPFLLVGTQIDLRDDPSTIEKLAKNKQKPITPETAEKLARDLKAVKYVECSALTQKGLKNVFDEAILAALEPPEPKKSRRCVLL

Row | EC50 (Cdc42 ACT (Cdc42Q61L)) [µM] | EC50 (Cdc42 WT) [µM] | Emax (Cdc42 WT) [%] | Inhibition of Cdc42 GTPase in GLISA [1] | Compound | Fluorescent-GTP binding to Cdc42 (Cdc42)
1 | 5 | 5 | 66 | significant response | Cc1ccc(C2CC(c3ccccc3)=NN2c2ccc(S(N)(=O)=O)cc2)cc1 (stereo not drawn) [CID 13927310, 4-[3-(4-methylphenyl)-5-phenyl-3,4-dihydropyrazol-2-yl]benzene sulfonamide] | –
2 | 5.3 | 5 | 55 | significant response | Cc1cccc(C2CC(c3ccccc3)=NN2c2ccc(S(N)(=O)=O)cc2)c1 (stereo not drawn) [CID 44143700, 4-[3-(3-methylphenyl)-5-phenyl-3,4-dihydropyrazol-2-yl]benzene sulfonamide] | –
3 | – | – | – | – | Oc1ccc(-c2nc(-c3ccncc3)c(-c3ccc(F)cc3)[nH]2)cc1 [SB 202190] | did not inhibit
